Source: patent publication US5932772A, “Separation processes” (Union Carbide Chemicals & Plastics Technology Corporation, priority 1998, dated 1999)
Like-named read-outs stand apart in the source and are kept apart here.

Experiments:
[1] = Ligand partition coefficient between polar solvent and hexane; type: physicochemical
[2] = Kpartition in hydroformylation catalyst mixture extracted with hexane (layers analyzed for rhodium); type: physicochemical; conditions: acetonitrile catalyst solution after 1-dodecene hydroformylation, 74° C, equal volume hexane
Method: To this solution was then charged 5 milliliters of 1-dodecene. The solution was stirred and allowed to equilibrate until no increase in pressure was observed. The reactor was then pressurized to 100 psig with H2 :CO (1:1). Pressure was maintained between 100 and 95 psig until no further reaction had occurred. At this point, the catalyst containing solution was discharged from the reactor. 1.5 milliliters of the catalyst solution was transferred to a vial. To this was added 1.5 milliliters of hexane. The mixture was vigorously shaken for several minutes, then allowed to settle and phase separate. The layers were then separated and analyzed for rhodium content.

[3] = Aldehyde partition coefficient between nonpolar and polar solvent
Method: The efficiency of this extraction process can be measured by a partition coefficient Kp of the one or more products which is defined as follows: [formula]
The vial was shaken vigorously, then allowed to settle. An aliquot from both phases was removed and analyzed for aldehyde via GC. Table H indicates the partition coefficient, which was determined by the ratio of the GC area for the aldehydes (sum of n and iso) in the nonpolar phase to the polar phase.
In this case, the aldehyde contained iso-heptadecanal, n-heptadecanal, and a small amount of C16 alkenes and alkanes. Table H indicates the partition coefficient.
Table H indicates the partition coefficient.
Table H indicates partition coefficient.

[4] = 3-methyl-2-oxazolidinone/hexane, ambient temperature
[5] = DMF/hexane, ambient temperature
[6] = DMSO/hexane, ambient temperature
[7] = acetonitrile/hexane, ambient temperature
[8] = adiponitrile/hexane, ambient temperature
[9] = summary table, acetonitrile and hexane
[10] = caprolactone/hexane, ambient temperature
[11] = 2,2-dimethylbutane/acetonitrile

| SMILES | Kpartition [1, 7] | Kpartition [1, 9] | further results |
| --- | --- | --- | --- |
| c1ccc(P(c2ccccc2)C2CCCCC2)cc1 [CHDPP, cyclohexyldiphenylphosphine, reference compound] | 0.5 | 0.4 | Kpartition [1, 4]: 1.2; Kpartition [1, 5]: 2; Kpartition [1, 6]: 0.5; Kpartition [1, 8]: 0.4 |
| N#Cc1ccc(P(c2ccc(C#N)cc2)c2ccc(C#N)cc2)cc1 [Ligand A] | 430 | 430 | Kpartition [1, 4]: > 1000; Kpartition [1, 5]: > 1000; Kpartition [1, 6]: > 1000; Kpartition [1, 8]: > 1000; Kpartition [1, 10]: > 1000 |
| N#Cc1cccc(P(c2cccc(C#N)c2)c2cccc(C#N)c2)c1 [Ligand B] | 470 | 470 | Kpartition [1, 5]: 470; Kpartition [1, 6]: 550; Kpartition [1, 10]: 960 |
| O=P(CCP(c1ccccc1)c1ccccc1)(c1ccccc1)c1ccccc1 [Ligand D] | 920 | 920 | Kpartition [1, 5]: 60; Kpartition [1, 6]: 440; Kpartition [1, 10]: 80 |
| O=P(CP(c1ccccc1)c1ccccc1)(c1ccccc1)c1ccccc1 [Ligand E] | 80 | 620 | Kpartition [1, 5]: 50; Kpartition [1, 6]: 620 |
| N#CCCP(CCC#N)CCC#N [Ligand F] | > 100 | > 100 |  |
| COc1ccc(P(c2ccc(OC)cc2)c2ccc(OC)cc2)cc1 [Ligand G] | 11 | 11 |  |
| CCCCCCCCCCCCCCP(c1ccc(C#N)cc1)c1ccc(C#N)cc1 [Ligand I] | 7 | 7 |  |
| OCCCP(c1ccccc1)c1ccccc1 [Ligand J] | 26 | 26 |  |
| N#CCCP(CCC#N)c1ccccc1 [Ligand L] | > 100 |  | Kpartition [1]: > 100 |
| c1ccc(-c2ccccc2Op2oc3ccccc3c3ccccc3o2)c(Op2oc3ccccc3c3ccccc3o2)c1 [Ligand M] | 25 | 25 |  |
| N#Cc1cccc(Op2oc3ccccc3c3ccccc3o2)c1 [Ligand N] | 28 | 28 |  |
| COc1cc(C(C)(C)C)c2op(Oc3ccccc3C#N)oc3c(C(C)(C)C)cc(OC)cc3c2c1 [Ligand O] | 5.2 | 5.2 |  |
| N#Cc1ccc(Op2oc3ccccc3c3ccccc3o2)cc1 [Ligand P] | 30 | 30 |  |
| COc1cc(C(C)(C)C)c2op(Oc3ccc([N+](=O)[O-])cc3)oc3c(C(C)(C)C)cc(OC)cc3c2c1 [Ligand Q] | 5.3 | 5.3 |  |
| O=[N+]([O-])c1ccc(Op2oc3ccccc3c3ccccc3o2)cc1 [Ligand R] | 22 | 22 | Kpartition in catalyst mixture [2]: 5.3 |
| COc1cc(-c2cc(OC)cc(C(C)(C)C)c2Op2oc3ccc(OC)cc3c3cc(OC)ccc3o2)c(Op2oc3ccc(OC)cc3c3cc(OC)ccc3o2)c(C(C)(C)C)c1 [Ligand S] | greater than 100 |  |  |
| C1CCC(P(C2CCCCC2)C2CCCCC2)CC1 [TCHP, tricyclohexylphosphine, reference compound] | 0.2 | < 0.2 |  |
| CCCCCCCCP(CCCCCCCC)CCCCCCCC [TOP, tri-n-octylphosphine, reference compound] | < 0.01 | < 0.01 |  |
| c1ccc(P(c2ccccc2)c2ccccc2)cc1 [TPP, triphenylphosphine, reference compound] | 1.3 | 1.3 | Kpartition [1, 4]: 4.3; Kpartition [1, 5]: 5.9; Kpartition [1, 6]: 2.3; Kpartition [1, 8]: 0.4; Kpartition [1, 10]: 3 |
| CCCCCCCCCCCC=O [dodecanal] |  |  | Kpartition (nonpolar to polar phase) [3, 11]: 4.6; Kpartition (nonpolar to polar phase) ([3]; heptane/acetonitrile): 4.4 |
| CCCCCCCCCCCCCCCCC=O [heptadecanal] |  |  | Kpartition (nonpolar to polar phase) ([3]; hexane/acetonitrile): 5.5 |
| CCCCCCCCCCCCCCC=O [pentadecanal] |  |  | Kpartition (nonpolar to polar phase) ([3]; hexane/acetonitrile): 6.8 |
| CCCCCCCCCCCCC=O [tridecanal] |  |  | Kpartition (nonpolar to polar phase) ([3]; 1-dodecene/acetonitrile): 4.3 |
| CCCCCCCCCCC=O [undecanal] |  |  | Kpartition (nonpolar to polar phase) ([3]; 1-decene/acetonitrile): 2.3; Kpartition (nonpolar to polar phase) [3, 11]: 3.3; Kpartition (nonpolar to polar phase) ([3]; cyclohexane/acetonitrile): 2.0; Kpartition (nonpolar to polar phase) ([3]; hexane/3-methyl-2-oxazolidinone): 2.6; Kpartition (nonpolar to polar phase) ([3]; nonane/acetonitrile): 1.9 |
